Test results taken from ChEMBL document CHEMBL1128849, “Synthesis and antibacterial activity of men 10700, a new penem antibiotic” (1995).
In brackets after ≈: the same amount, converted by molar mass.

Key:
[1] = system: Streptococcus pyogenes; assay: In vitro antibacterial activity against Streptococcus pyogenes A; type: functional
[2] = system: Moraxella catarrhalis; assay: In vitro antibacterial activity against Branhamella catarrhalis; type: functional
[3] = system: Listeria monocytogenes; assay: In vitro antibacterial activity against Listeria monocytogenes; type: functional
[4] = system: Aeromonas sp.; assay: In vitro antibacterial activity against Aeromonas species.; type: functional
[5] = system: Bacteroides fragilis; assay: In vitro antibacterial activity against Bacteroides fragilis; type: functional
[6] = system: Streptococcus agalactiae; assay: In vitro antibacterial activity against Streptococcus agalactiae B; type: functional
[7] = system: Staphylococcus aureus; assay: In vitro antibacterial activity against Staphylococcus aureus MR; type: functional
[8] = system: Enterococcus faecalis; assay: In vitro antibacterial activity against Enterococcus faecalis; type: functional
[9] = system: Klebsiella pneumoniae; assay: In vitro antibacterial activity against Klebsiella pneumoniae; type: functional
[10] = system: Staphylococcus aureus; assay: In vitro antibacterial activity against Staphylococcus aureus MS; type: functional
[11] = system: Streptococcus pneumoniae; assay: In vitro antibacterial activity against Streptococcus pneumoniae; type: functional
[12] = system: Clostridium perfringens; assay: In vitro antibacterial activity against Clostridium perfringens; type: functional
[13] = system: Haemophilus influenzae; assay: In vitro antibacterial activity against Haemophilus influenzae; type: functional
[14] = system: Staphylococcus epidermidis; assay: In vitro antibacterial activity against Staphylococcus epidermidis; type: functional
[15] = system: Yersinia sp.; assay: In vitro antibacterial activity against Yersinia species; type: functional, yersinia spp; details: Yersinia sp. (in: enterobacteria)
[16] = system: Enterococcus faecium; assay: In vitro antibacterial activity against Enterococcus faecium; type: functional
[17] = system: Acinetobacter calcoaceticus subsp. anitratus; assay: In vitro antibacterial activity against Acinetobacter anitratus; type: functional
[18] = system: Providencia rettgeri; assay: In vitro antibacterial activity against Providencia rettgerii; type: functional
[19] = system: Pseudomonas aeruginosa; assay: In vitro antibacterial activity against Pseudomonas aeruginosa VR5; type: functional
[20] = system: Escherichia coli; assay: In vitro antibacterial activity against Escherichia. coli TEM1; type: functional
[21] = system: Staphylococcus aureus; assay: In vitro antibacterial activity against Staphylococcus aureus MR13; type: functional
[22] = system: Pseudomonas aeruginosa; assay: In vitro antibacterial activity against Pseudomonas aeruginosa G242; type: functional
[23] = system: Escherichia coli; assay: In vitro antibacterial activity against Escherichia. coli SHV; type: functional
[24] = system: Staphylococcus aureus; assay: In vitro antibacterial activity against Staphylococcus aureus ATCC 29213; type: functional
[25] = system: Klebsiella aerogenes; assay: In vitro antibacterial activity against Enterobacter aerogenes; type: functional
[26] = system: Staphylococcus aureus; assay: In vitro antibacterial activity against Staphylococcus aureus MR09; type: functional
[27] = system: Morganella morganii; assay: In vitro antibacterial activity against Morganella morganii; type: functional
[28] = system: Escherichia coli; assay: In vitro antibacterial activity against Escherichia. coli L; type: functional
[29] = system: Proteus vulgaris; assay: In vitro antibacterial activity against Proteus vulgaris; type: functional
[30] = system: Pseudomonas aeruginosa; assay: microbe, parasite or virus in culture; details: ATCC 27853
[31] = system: Escherichia coli; assay: In vitro antibacterial activity against Escherichia coli; type: functional
[32] = system: Escherichia coli; assay: In vitro antibacterial activity against Escherichia. coli ATCC 25922; type: functional
[33] = system: Stenotrophomonas maltophilia; assay: In vitro antibacterial activity against Xanthomonas maltophilia; type: functional
[34] = system: Escherichia coli; assay: In vitro antibacterial activity against Escherichia. coli DC2; type: functional
[35] = system: Staphylococcus aureus; assay: In vitro antibacterial activity against Staphylococcus aureus ATCC 25923; type: functional
[36] = system: Escherichia coli; assay: In vitro antibacterial activity against Escherichia. coli TEM2; type: functional
[37] = system: Pseudomonas aeruginosa; assay: In vitro antibacterial activity against Pseudomonas aeruginosa; type: functional
[38] = system: Proteus mirabilis; assay: In vitro antibacterial activity against Proteus mirabilis; type: functional
[39] = system: Providencia stuartii; assay: In vitro antibacterial activity against Providencia stuartii; type: functional
[40] = system: Enterococcus faecalis; assay: In vitro antibacterial activity against Enterococcus faecalis ATCC 29212; type: functional
[41] = system: Citrobacter freundii; assay: In vitro antibacterial activity against Citrobacter freundii; type: functional
[42] = system: Pseudomonas aeruginosa; assay: In vitro antibacterial activity against Pseudomonas aeruginosa ATCC 27853; type: functional

## CC1(C)S[C@@H]2[C@H](NC(=O)[C@H](N)c3ccc(O)cc3)C(=O)N2[C@H]1C(=O)O [AMOXICILLIN]
[1]
  MIC90: 0.015 µg/mL (≈ 0.041 µM)
[2]
  MIC90: 2 µg/mL (≈ 5.47 µM)
[3]
  MIC90: 0.5 µg/mL (≈ 1.37 µM)
[4]
  MIC90: > 32 µg/mL
[5]
  MIC90: 32 µg/mL (≈ 87.6 µM)
[6]
  MIC90: 0.06 µg/mL (≈ 0.164 µM)
[7]
  MIC90: > 32 µg/mL
[8]
  MIC90: 0.5 µg/mL (≈ 1.37 µM)
[9]
  MIC90: > 64 µg/mL
[10]
  MIC90: 1 µg/mL (≈ 2.74 µM)
[11]
  MIC90: 0.015 µg/mL (≈ 0.041 µM)
[12]
  MIC90: 0.06 µg/mL (≈ 0.164 µM)
[13]
  MIC90: 1 µg/mL (≈ 2.74 µM)
[14]
  MIC90: 4 µg/mL (≈ 10.9 µM)
[15]
  MIC90: > 64 µg/mL
[16]
  MIC90: 32 µg/mL (≈ 87.6 µM)

## C[C@@H](O)[C@H]1C(=O)N2C(C(=O)O)=C(SCCNC=N)C[C@H]12 [IMIPENEM ANHYDROUS]
[1]
  MIC90: 0.06 µg/mL (≈ 0.2 µM)
[17]
  MIC90: 0.5 µg/mL (≈ 1.67 µM)
[18]
  MIC90: 1 µg/mL (≈ 3.34 µM)
[19]
  MIC: 0.25 µg/mL (≈ 0.835 µM)
[2]
  MIC90: 0.03 µg/mL (≈ 0.1 µM)
[20]
  MIC: 0.25 µg/mL (≈ 0.835 µM)
[21]
  MIC: 0.12 µg/mL (≈ 0.401 µM)
[22]
  MIC: 0.25 µg/mL (≈ 0.835 µM)
[3]
  MIC90: 0.03 µg/mL (≈ 0.1 µM)
[4]
  MIC90: 0.06 µg/mL (≈ 0.2 µM)
[23]
  MIC: 0.25 µg/mL (≈ 0.835 µM)
[24]
  MIC: < 0.03 µg/mL
[25]
  MIC90: 4 µg/mL (≈ 13.4 µM)
[5]
  MIC90: 0.25 µg/mL (≈ 0.835 µM)
[6]
  MIC90: 0.015 µg/mL (≈ 0.0501 µM)
[7]
  MIC90: > 32 µg/mL
[8]
  MIC90: 2 µg/mL (≈ 6.68 µM)
[9]
  MIC90: 0.25 µg/mL (≈ 0.835 µM)
[26]
  MIC: 0.25 µg/mL (≈ 0.835 µM)
[27]
  MIC90: 2 µg/mL (≈ 6.68 µM)
[10]
  MIC90: 0.015 µg/mL (≈ 0.0501 µM)
[28]
  MIC: 0.12 µg/mL (≈ 0.401 µM)
[29]
  MIC90: 2 µg/mL (≈ 6.68 µM)
[11]
  MIC90: 0.06 µg/mL (≈ 0.2 µM)
[30]
  MIC: 1 µg/mL (≈ 3.34 µM)
[12]
  MIC90: 0.03 µg/mL (≈ 0.1 µM)
[31]
  MIC90: 0.12 µg/mL (≈ 0.401 µM)
[13]
  MIC90: 1 µg/mL (≈ 3.34 µM)
[14]
  MIC90: 0.25 µg/mL (≈ 0.835 µM)
[32]
  MIC: 0.12 µg/mL (≈ 0.401 µM)
[33]
  MIC90: > 64 µg/mL
[34]
  MIC: 0.5 µg/mL (≈ 1.67 µM)
[35]
  MIC: < 0.03 µg/mL
[36]
  MIC: 0.25 µg/mL (≈ 0.835 µM)
[15]
  MIC90: 0.25 µg/mL (≈ 0.835 µM)
[37]
  MIC90: 8 µg/mL (≈ 26.7 µM)
[38]
  MIC90: 2 µg/mL (≈ 6.68 µM)
[39]
  MIC90: 2 µg/mL (≈ 6.68 µM)
[16]
  MIC90: > 64 µg/mL
[40]
  MIC: 0.5 µg/mL (≈ 1.67 µM)
[41]
  MIC90: 0.5 µg/mL (≈ 1.67 µM)

## C[C@@H](O)[C@H]1C(=O)N2C(C(=O)O)=C(COC(N)=O)S[C@H]12 [RITIPENEM]
[19]
  MIC: 0.5 µg/mL (≈ 1.73 µM)
[20]
  MIC: 1 µg/mL (≈ 3.47 µM)
[21]
  MIC: 0.12 µg/mL (≈ 0.416 µM)
[22]
  MIC: 1 µg/mL (≈ 3.47 µM)
[23]
  MIC: 1 µg/mL (≈ 3.47 µM)
[24]
  MIC: 0.12 µg/mL (≈ 0.416 µM)
[26]
  MIC: 2 µg/mL (≈ 6.94 µM)
[28]
  MIC: 1 µg/mL (≈ 3.47 µM)
[42]
  MIC: > 32 µg/mL
[32]
  MIC: 0.5 µg/mL (≈ 1.73 µM)
[34]
  MIC: 1 µg/mL (≈ 3.47 µM)
[35]
  MIC: 0.06 µg/mL (≈ 0.208 µM)
[36]
  MIC: 1 µg/mL (≈ 3.47 µM)
[40]
  MIC: 2 µg/mL (≈ 6.94 µM)

## C[C@@H](O)[C@H]1C(=O)N2C(C(=O)O)=C(CN(C)CC(N)=O)SC12 (some centres not stated)
[1]
  MIC90: 0.06 µg/mL (≈ 0.19 µM)
[17]
  MIC90: 16 µg/mL (≈ 50.7 µM)
[18]
  MIC90: 2 µg/mL (≈ 6.34 µM)
[19]
  MIC: 0.5 µg/mL (≈ 1.59 µM)
[2]
  MIC90: 0.25 µg/mL (≈ 0.793 µM)
[20]
  MIC: 0.25 µg/mL (≈ 0.793 µM)
[21]
  MIC: 0.06 µg/mL (≈ 0.19 µM)
[22]
  MIC: 4 µg/mL (≈ 12.7 µM)
[3]
  MIC90: 0.5 µg/mL (≈ 1.59 µM)
[4]
  MIC90: 1 µg/mL (≈ 3.17 µM)
[23]
  MIC: 0.5 µg/mL (≈ 1.59 µM)
[24]
  MIC: 0.06 µg/mL (≈ 0.19 µM)
[25]
  MIC90: 2 µg/mL (≈ 6.34 µM)
[5]
  MIC90: 2 µg/mL (≈ 6.34 µM)
[6]
  MIC90: 0.06 µg/mL (≈ 0.19 µM)
[7]
  MIC90: 4 µg/mL (≈ 12.7 µM)
[8]
  MIC90: 8 µg/mL (≈ 25.4 µM)
[9]
  MIC90: 0.5 µg/mL (≈ 1.59 µM)
[26]
  MIC: 1 µg/mL (≈ 3.17 µM)
[27]
  MIC90: 2 µg/mL (≈ 6.34 µM)
[10]
  MIC90: 0.0075 µg/mL (≈ 0.0238 µM)
[28]
  MIC: 0.25 µg/mL (≈ 0.793 µM)
[29]
  MIC90: 2 µg/mL (≈ 6.34 µM)
[11]
  MIC90: 0.06 µg/mL (≈ 0.19 µM)
[12]
  MIC90: 0.5 µg/mL (≈ 1.59 µM)
[31]
  MIC90: 0.25 µg/mL (≈ 0.793 µM)
[13]
  MIC90: 2 µg/mL (≈ 6.34 µM)
[42]
  MIC: > 32 µg/mL
[14]
  MIC90: 0.015 µg/mL (≈ 0.0476 µM)
[32]
  MIC: 0.25 µg/mL (≈ 0.793 µM)
[33]
  MIC90: > 64 µg/mL
[34]
  MIC: 0.25 µg/mL (≈ 0.793 µM)
[35]
  MIC: < 0.03 µg/mL
[36]
  MIC: 0.5 µg/mL (≈ 1.59 µM)
[15]
  MIC90: 0.5 µg/mL (≈ 1.59 µM)
[37]
  MIC90: > 64 µg/mL
[38]
  MIC90: 1 µg/mL (≈ 3.17 µM)
[39]
  MIC90: 2 µg/mL (≈ 6.34 µM)
[16]
  MIC90: > 64 µg/mL
[40]
  MIC: 4 µg/mL (≈ 12.7 µM)
[41]
  MIC90: 1 µg/mL (≈ 3.17 µM)
